“And” between values parts separate entries of the source, which are not always exact repeats. Equal values may be shown once.
Columns and labels:
[1] = cited from earlier work
[2] = test system: SARS-CoV-2 VOC-202012/01 strain; format: cell-based

Row | SMILES | plasma half-life [1] [h] | time of peak plasma concentrations [1] [h] | 100% CPE inhibitory concentration (CPEIC100) [2] | time to maximal effectiveness on the coronavirus ([2]; after starting treatment) [h]
1 | O=c1nc[nH]c2c1ncn2[C@H]1CC[C@@H](CO)O1 [DDI, 9-[(2R,5S)-5-(hydroxymethyl)oxolan-2-yl]-3H-purin-6-one] | ≤ 2 | 0.5 to 1.5 | 8.95 µM and 8.95 ± 0.52 µM | 12 to 24
2 | N#C[C@@]1(c2ccc3c(N)ncnn23)O[C@H](CO)[C@@H](O)[C@H]1O [GS-441524] |  |  | 17.40 µM and 17.40 ± 1.83 µM | 
3 | CCC(CC)COC(=O)[C@H](C)N[P@](=O)(OC[C@H]1O[C@@](C#N)(c2ccc3c(N)ncnn23)[C@H](O)[C@@H]1O)Oc1ccccc1 [remdesivir] |  |  | 25.17 µM and 25.17 ± 2.51 µM | 
